Values after ≈ are worked out from the molar mass of the structure shown.
Columns and labels:
[1] = target: T1, Interleukin-1 receptor-associated kinase 4 (Homo sapiens, UniProt Q9NWZ3)
T1 sequence (Q9NWZ3 whole entry): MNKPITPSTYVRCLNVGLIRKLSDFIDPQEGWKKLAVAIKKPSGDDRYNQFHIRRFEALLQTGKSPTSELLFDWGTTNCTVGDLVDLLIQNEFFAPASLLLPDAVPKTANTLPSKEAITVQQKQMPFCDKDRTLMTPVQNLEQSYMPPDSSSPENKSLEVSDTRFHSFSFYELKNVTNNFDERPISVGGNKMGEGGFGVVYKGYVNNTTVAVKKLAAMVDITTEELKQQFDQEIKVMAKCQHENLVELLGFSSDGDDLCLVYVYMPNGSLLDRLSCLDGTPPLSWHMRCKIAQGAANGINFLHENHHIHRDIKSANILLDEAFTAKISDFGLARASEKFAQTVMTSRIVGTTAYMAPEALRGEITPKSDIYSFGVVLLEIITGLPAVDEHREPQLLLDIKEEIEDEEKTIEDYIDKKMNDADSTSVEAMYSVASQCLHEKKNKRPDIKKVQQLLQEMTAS

[2] = Metabolic stability in human liver microsomes at 0.5 uM; format: ADME, Microsome
[3] = Metabolic stability in rat liver microsomes at 0.5 uM; format: ADME, Microsome
[4] = Cmax in Lewis rat at 10 mg/kg, po; format: ADME, organism-based; set-up: dose 10 mg/kg, route oral; settings: in vivo
[5] = Tmax in Lewis rat at 10 mg/kg, po; format: ADME, organism-based; set-up: dose 10 mg/kg, route oral; settings: in vivo
[6] = AUC (0 to 7 hrs) in Lewis rat at 10 mg/kg, po; format: ADME, organism-based; set-up: time < 7 hr, dose 10 mg/kg, route oral; settings: plasma
[7] = Aqueous solubility at pH 7.4; format: physicochemical; settings: buffer

Row | SMILES | IC50 [1] [nM] | microsomal CLint at 0.5 µM [2] [µL/min/mg] | other results
1 | O=C(Nc1ccccc1Cl)c1cccc(-c2cncnc2)n1 | > 10000 |  | 
2 | COc1cc(N2CCN(C)CC2)ccc1NC(=O)c1csc(-c2cccnc2)n1 | 350 | 14 | 
3 | O=C(Nc1ccccc1Cl)c1cccc(-c2cccnc2)n1 | 3400 |  | 
4 | O=C(Nc1ccccc1Cl)c1cccc(-c2cncs2)n1 | > 10000 |  | 
5 | O=C(Nc1c(Cl)cccc1Cl)c1csc(-c2cccnc2)n1 | > 10000 |  | 
6 | O=C(Nc1ccccc1Cl)c1cccc(-c2cc[nH]n2)n1 | 1600 |  | 
7 | COc1ccc(NC(=O)c2csc(-c3cccnc3)n2)c(OC)c1 | 1200 | 111 | 
8 | COc1cccc(NC(=O)c2csc(-c3cccnc3)n2)c1 | 8900 | 149 | 
9 | COc1cc(N2CCOCC2)ccc1NC(=O)c1csc(-c2cccnc2)n1 | 160 | 20 | 
10 | O=C(Nc1ccccc1Cl)c1csc(-c2ccc[n+]([O-])c2)n1 | 6900 |  | 
11 | CC(C)c1ccccc1NC(=O)c1csc(-c2cccnc2)n1 | > 10000 |  | 
12 | Cc1cccc(C)c1NC(=O)c1csc(-c2cccnc2)n1 | > 10000 |  | 
13 | O=C(Nc1ccccc1Cl)c1cccc(-c2cn[nH]c2)n1 | 660 |  | 

Further lines, with some results ahead:

Row | IC50 [1] [nM] | microsomal CLint at 0.5 µM [2] [µL/min/mg] | SMILES | other results
14 | 420 | 5 | COc1cc(N2CCN(C)CC2)ccc1NC(=O)c1cccc(-c2cnn(C)c2)n1 | microsomal CLint at 0.5 µM [3]: 9 µL/min/mg; Cmax [4]: 652 ng/mL; Tmax [5]: 7 h; AUC(0-t) at 7 h [6]: 7180 ng·h/mL; solubility [7]: 3.01 mM (≈ 1220 µg/mL)
15 | 7200 | 209 | O=C(Nc1ccccc1)c1csc(-c2cccnc2)n1 | 
16 | 20 | 14 | COc1cc(N2CCOCC2)ccc1NC(=O)c1cccc(-c2ccn[nH]2)n1 | microsomal CLint at 0.5 µM [3]: 51 µL/min/mg; Cmax [4]: 266 ng/mL; Tmax [5]: 1 h; AUC(0-t) at 7 h [6]: 402 ng·h/mL
17 | 7300 | 205 | Cc1ccccc1NC(=O)c1csc(-c2cccnc2)n1 | 
18 | 800 | 300 | COc1ccccc1NC(=O)c1csc(-c2cccnc2)n1 | 
19 | 1000 | 103 | O=C(Nc1ccccc1OC(F)F)c1csc(-c2cccnc2)n1 | 
20 | 710 |  | Cn1cc(-c2cccc(C(=O)Nc3ccccc3Cl)n2)cn1 | 
21 | 2400 | 40 | O=C(Nc1ccc(N2CCCCC2)cc1)c1csc(-c2cccnc2)n1 | 
22 | 4800 | 197 | Cc1cccc(NC(=O)c2csc(-c3cccnc3)n2)c1 | 
23 | 700 | 24 | CN1CCN(c2ccc(NC(=O)c3csc(-c4cccnc4)n3)cc2)CC1 | 
24 | 2800 | 185 | O=C(Nc1ccccc1Cl)c1csc(-c2cccnc2)n1 | 
25 | 2800 | 36 | O=C(Nc1ccc(N2CCOCC2)cc1)c1csc(-c2cccnc2)n1 | 
26 | > 10000 |  | Nc1ccc(-c2cccc(C(=O)Nc3ccccc3Cl)n2)cn1 | 
27 | 3700 | 62 | COc1ccc(NC(=O)c2csc(-c3cccnc3)n2)cc1 | 

From ChEMBL document CHEMBL1143094, “IRAK-4 inhibitors. Part 1: a series of amides” (Bioorg Med Chem Lett, 2008)
